Test results as given in paper PMC5306062, “Pharmacology and toxicology of the novel investigational agent Cantrixil (TRX-E-002-1)” (Cancer Chemotherapy and Pharmacology, 2016).
Several values for one entry are separate records, joined by “and”; a condition that tells them apart may be missing. Equal values may be shown once.

Key:
[1] = Second dog pharmacokinetic study, 10 mg/kg intraperitoneal, four dogs; format: in vivo, beagle dogs; conditions: 10 mg/kg i.p.
Description: In beagle dogs, plasma concentrations of unconjugated TRX-E-002-1 at early time points (1–4 h’ post-dose) were 76–93% of the total levels (parent + glucuronide). At 8 h, the plasma concentrations of the glucuronide metabolites were similar to those of parent drug. By 24 h’ post-dose, the concentrations of TRX-E-002-1-glucuronide in plasma and gastrointestinal tissues (except colon) were 2–12 times higher than those of the parent drug. The increased levels of TRX-E-0021-glucuronide relative to those of parent drug at 24 h post-dose may reflect slower elimination of the glucuronide metabolites.

[2] = system: micronucleated polychromatic erythrocytes (PCEs) in bone marrow; assay: Bone marrow micronucleus test; format: in vivo, ARC(S) Swiss mice; conditions: for frequency of micronucleated PCEs: female mice
Description: The assays were performed in compliance with GLP regulations.
The bone marrow micronucleus test was the in vivo part of the ICH genotoxicity testing battery and was conducted in ARC(S) Swiss mice. Eight groups of mice (10/sex/group) were given an intraperitoneal injection of vehicle (20% w/v SBECD) or Cantrixil at 50, 200 or 400 mg/kg and were killed 24 or 48 h later. Dimethyl-1,2 benzanthracene was used as the positive control. After preparation of the bone marrow cells, the number of micronucleated polychromatic erythrocytes (PCEs) was determined in 4000 PCEs per animal, and the proportion of PCEs in the total erythrocyte population in bone marrow was calculated from the examination of at least 500 erythrocytes as an index of bone marrow toxicity. […] The proportion of PCEs in the total erythrocyte population was decreased in both sexes at the 200 and 400 mg/kg doses at both kill times. TRX-E-002-1 is therefore considered clastogenic in this system at the described concentrations in vivo [the equivalent 200/400 mg/kg dose in a […] is 16.2 mg/kg (600 mg/m^2)/32.4 mg/kg (1200 mg/m^2) in a 60-kg human].

[3] = system: human Panc-1 pancreatic tumour cells implanted orthotopically; assay: Orthotopic model of pancreatic cancer; format: in vivo, female NOD-SCID mice; conditions: 100 mg/kg i.p. once daily in 20% SBECD, 18 consecutive days; p < 0.001
Description: Fig. 3 Efficacy of TRX-E-002-1 in an orthotopic model of pancreatic cancer. Female NOD-SCID mice were inoculated directly into the pancreas with PANC-1 human pancreatic epithelioid adenocarcinoma cells transfected with luciferase gene. Tumours were allowed to establish prior to treatment initiation. Animals were dosed with TRX-E-002-1 100 mg/kg i.p. for 18 consecutive days over which time tumour growth was monitored using bioluminescent imaging. Following euthanasia at the predetermined end-point, tumours were excised and weighed. Final tumour (plus pancreas) weights excised at the terminal time point. *p < 0.001

[4] = system: chemo-sensitive CD44−/MyD88− ovarian cancer cell lines; assay: Cell death in chemo-sensitive ovarian cancer cell lines; format: cell-based, human; conditions: grown separately or in co-cultures
From the text: Tumour recurrence post-chemotherapy is caused by the regrowth of the surviving innately drug-resistant cancer stem cells that remain in tumour niches during and post-chemotherapy. The expansion of this chemo-resistant cancer cell population, coupled with upregulation of pro-survival pathways due to drug pressure, is thought to be responsible for the development of chemo-resistant recurrent disease. Further, the inherent heterogeneity of ovarian tumours consists of epithelial cells with varying potential for stemness, and a population of cancer cells with varying mesenchymal status and invasiveness potential. Therefore, to improve survival, a practical approach is the use of novel therapies that can induce cell death in these various subtypes of ovarian cancer cells. TRX-E-002-1 was assessed against ovarian cancer stem cell line OCSC2, characterised by their expression of stem cell markers including CD44 and […] [22]. A major characteristic of these cells is that they are drug resistant, able to form self-renewing spheroids in non-adherent culture, and recreate disseminated drug-resistant ovarian tumours that have a high degree of heterogeneity similar to the clinical profile observed in patients when inoculated into the peritoneal cavity of an immune-compromised mouse.

C4-2B = assay: Cytotoxic activity in human cancer cell lines (72 h growth inhibition); format: cell-based; conditions: Prostate, 72 h incubation, mean ± SEM
From the text: (§1) Activity in pancreatic and colorectal cancer cells and glioblastoma cells was more variable (Table 1).

ASPC1 = assay: as above; format: cell-based; conditions: Pancreatic, 72 h incubation, mean ± SEM
From the text: as §1

JAM = assay: as above; format: cell-based; conditions: Ovarian, 72 h incubation, mean ± SEM
From the text: as §1

PC3 = assay: as above; format: cell-based; conditions: PC-3, Prostate, 72 h incubation, mean ± SEM
From the text: as §1

A172 = assay: as above; format: cell-based; conditions: A 172, Glioblastoma, 72 h incubation, mean ± SEM
From the text: as §1

HT-29 = assay: as above; format: cell-based; conditions: Colorectal, 72 h incubation, mean ± SEM
From the text: as §1

A549 = assay: as above; format: cell-based; conditions: Lung, 72 h incubation
From the text: as §1

Panc-1 = assay: as above; format: cell-based; conditions: Pancreatic, 72 h incubation, mean ± SEM
From the text: as §1

OVCAR-3 = assay: as above; format: cell-based; conditions: Ovarian, 72 h incubation, mean ± SEM
From the text: as §1

DU145 = assay: as above; format: cell-based; conditions: DU-145, Prostate, 72 h incubation, mean ± SEM
From the text: as §1

LOVO = assay: as above; format: cell-based; conditions: Colorectal, 72 h incubation, mean ± SEM
From the text: as §1

[5] = system: ovarian, prostate and lung cancer cells; assay: Broad cytotoxic activity; format: cell-based; conditions: Homo sapiens, summary over ovarian
From the text: as §1

[6] = system: CYP2C9, CYP2C8, CYP2C19, CYP2B6, CYP3A4, CYP2D6, CYP2A6 and CYP1A2; assay: Inhibition of cytochrome P450 enzymes in human hepatic microsomes; format: in vitro ADME; conditions: liver microsomes, read-out: IC50 values, range over the CYP enzymes
From the text: The potential for pharmacokinetic drug interactions resulting from inhibition of drug-metabolizing cytochrome P450 enzymes was investigated in human hepatic microsomes in vitro. TRX-E-002-1 inhibited multiple cytochrome P450 drug-metabolizing enzymes, including CYP2C9, CYP2C8, CYP2C19, CYP2B6, CYP3A4, CYP2D6, CYP2A6 and CYP1A2. […] In particular, the potential interaction between Cantrixil and paclitaxel, a CYP2C9 substrate frequently used in the treatment of ovarian cancer, needs to be considered.

COc1cc([C@@H]2COc3c(ccc(O)c3C)[C@@H]2c2ccc(O)cc2)cc(OC)c1O [TRX-E-002-1, (+) cis-4-(para-hydroxyphenyl)-7,4′-dihydroxy-3′,5′-dimethoxy-8-methylisoflavan]
TRX-E-002-1 levels by 72 h [1]: close to or below the limit of quantification
Kp at 24 h ([1]; beagle, dog, gastrointestinal tissues, ip, 24 h after dosing, read-out: concentrations in gastrointestinal tissues relative to plasma): ≥ 30
clastogenicity, overall conclusion ([2]; at the described concentrations in vivo): clastogenic
proportion of PCEs in the total erythrocyte population ([2]; both sexes, 200 and 400 mg/kg, both kill times): decreased
frequency of micronucleated PCEs ([2]; 200 mg/kg i.p., 24 and 48 h): significantly increased
frequency of micronucleated PCEs ([2]; 400 mg/kg i.p., 24 h): significantly increased
slight increases in frequency of micronucleated PCEs ([2]; male mice, 200 and 400 mg/kg i.p.): not statistically significant
terminal pancreatic tumour burden [3]: significantly reduced
induction of cell death [4]: able to induce cell death
IC50 (C4-2B): 14 ± 9 nM
IC50 (ASPC1): 227 ± 55 nM
IC50 (JAM): 65 ± 2 nM
IC50 (PC3): 96 ± 77 nM
IC50 (A172): 51 ± 2 nM
IC50 (HT-29): 1760 ± 1380 nM
IC50 (A549): 58 nM
IC50 (Panc-1): 467 ± 378 nM
IC50 (OVCAR-3): 23 ± 6 nM
IC50 (DU145): 41 ± 14 nM
IC50 (LOVO): 45 ± 5 nM
IC50 (LOVO; Homo sapiens, LoVo, 72 h): 84 nM
IC50 [5]: ≤ 100 nM
IC50 [6]: 1.5 µM to 75 µM and 0.612 µg/mL to 30.6 µg/mL
